Reference: US11021444B2, “Antiviral compounds” (priority 2013, dated 2021)
Where two headings read alike, the source gives them in different places.

Columns and labels:
[1] = system: RSV replicon; experiment: microbe, parasite or virus in culture; assay type: cell-based; details: human respiratory syncytial virus, read-out: EC50, the concentration of the drug required for reducing RSV replicon RNA by 50%
Experimental: The Renilla Luciferase Assay System (Promega, Cat. #E2820) was used to measure anti-RSV replicon activity. […] Luminescence was recorded using a Perkin Elmer multilabel counter Victor3V. EC50, the concentration of the drug required for reducing RSV replicon RNA by 50% in relation to the untreated cell control value, was calculated from the plot of percentage reductions of the optical density (OD) value against the drug concentrations using the Microsoft Excel forecast function.

[2] = Cytotoxicity Determination (CCK-8, without addition of virus); assay type: cell-based; details: human
In short: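 HEp-2 cells were seeded at 1,500 cells/well one day before compound addition. Compounds were tested without virus in duplicate over 7 points from 100 μM in 1/2 steps, with 1% final DMSO, 5 days at 37 °C, 5% CO2. Viability was read by CCK-8 after 3-4 hours.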

[3] = system: Respiratory Syncytial Virus (RSV) long strain; experiment: microbe, parasite or virus in culture; assay type: cell-based; details: human respiratory syncytial virus, Tables A and B list compounds by EC50 band
In short: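 HEp-2 cells infected with 100 TCID50 virus per well, compounds in duplicate, 9-point 1/3 dilutions from 100 μM or 1 μM, 1% DMSO. After 5 days at 37 °C, cell viability (CPE protection) read by CCK-8 absorbance at 450 nm, 630 nm background.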

[4] = target: recombinant RSV complex (Human respiratory syncytial virus A, UniProt P28887); experiment: RSV Polymerase Inhibition Assay; assay type: biochemical
Chain of recombinant RSV complex (P28887 whole entry): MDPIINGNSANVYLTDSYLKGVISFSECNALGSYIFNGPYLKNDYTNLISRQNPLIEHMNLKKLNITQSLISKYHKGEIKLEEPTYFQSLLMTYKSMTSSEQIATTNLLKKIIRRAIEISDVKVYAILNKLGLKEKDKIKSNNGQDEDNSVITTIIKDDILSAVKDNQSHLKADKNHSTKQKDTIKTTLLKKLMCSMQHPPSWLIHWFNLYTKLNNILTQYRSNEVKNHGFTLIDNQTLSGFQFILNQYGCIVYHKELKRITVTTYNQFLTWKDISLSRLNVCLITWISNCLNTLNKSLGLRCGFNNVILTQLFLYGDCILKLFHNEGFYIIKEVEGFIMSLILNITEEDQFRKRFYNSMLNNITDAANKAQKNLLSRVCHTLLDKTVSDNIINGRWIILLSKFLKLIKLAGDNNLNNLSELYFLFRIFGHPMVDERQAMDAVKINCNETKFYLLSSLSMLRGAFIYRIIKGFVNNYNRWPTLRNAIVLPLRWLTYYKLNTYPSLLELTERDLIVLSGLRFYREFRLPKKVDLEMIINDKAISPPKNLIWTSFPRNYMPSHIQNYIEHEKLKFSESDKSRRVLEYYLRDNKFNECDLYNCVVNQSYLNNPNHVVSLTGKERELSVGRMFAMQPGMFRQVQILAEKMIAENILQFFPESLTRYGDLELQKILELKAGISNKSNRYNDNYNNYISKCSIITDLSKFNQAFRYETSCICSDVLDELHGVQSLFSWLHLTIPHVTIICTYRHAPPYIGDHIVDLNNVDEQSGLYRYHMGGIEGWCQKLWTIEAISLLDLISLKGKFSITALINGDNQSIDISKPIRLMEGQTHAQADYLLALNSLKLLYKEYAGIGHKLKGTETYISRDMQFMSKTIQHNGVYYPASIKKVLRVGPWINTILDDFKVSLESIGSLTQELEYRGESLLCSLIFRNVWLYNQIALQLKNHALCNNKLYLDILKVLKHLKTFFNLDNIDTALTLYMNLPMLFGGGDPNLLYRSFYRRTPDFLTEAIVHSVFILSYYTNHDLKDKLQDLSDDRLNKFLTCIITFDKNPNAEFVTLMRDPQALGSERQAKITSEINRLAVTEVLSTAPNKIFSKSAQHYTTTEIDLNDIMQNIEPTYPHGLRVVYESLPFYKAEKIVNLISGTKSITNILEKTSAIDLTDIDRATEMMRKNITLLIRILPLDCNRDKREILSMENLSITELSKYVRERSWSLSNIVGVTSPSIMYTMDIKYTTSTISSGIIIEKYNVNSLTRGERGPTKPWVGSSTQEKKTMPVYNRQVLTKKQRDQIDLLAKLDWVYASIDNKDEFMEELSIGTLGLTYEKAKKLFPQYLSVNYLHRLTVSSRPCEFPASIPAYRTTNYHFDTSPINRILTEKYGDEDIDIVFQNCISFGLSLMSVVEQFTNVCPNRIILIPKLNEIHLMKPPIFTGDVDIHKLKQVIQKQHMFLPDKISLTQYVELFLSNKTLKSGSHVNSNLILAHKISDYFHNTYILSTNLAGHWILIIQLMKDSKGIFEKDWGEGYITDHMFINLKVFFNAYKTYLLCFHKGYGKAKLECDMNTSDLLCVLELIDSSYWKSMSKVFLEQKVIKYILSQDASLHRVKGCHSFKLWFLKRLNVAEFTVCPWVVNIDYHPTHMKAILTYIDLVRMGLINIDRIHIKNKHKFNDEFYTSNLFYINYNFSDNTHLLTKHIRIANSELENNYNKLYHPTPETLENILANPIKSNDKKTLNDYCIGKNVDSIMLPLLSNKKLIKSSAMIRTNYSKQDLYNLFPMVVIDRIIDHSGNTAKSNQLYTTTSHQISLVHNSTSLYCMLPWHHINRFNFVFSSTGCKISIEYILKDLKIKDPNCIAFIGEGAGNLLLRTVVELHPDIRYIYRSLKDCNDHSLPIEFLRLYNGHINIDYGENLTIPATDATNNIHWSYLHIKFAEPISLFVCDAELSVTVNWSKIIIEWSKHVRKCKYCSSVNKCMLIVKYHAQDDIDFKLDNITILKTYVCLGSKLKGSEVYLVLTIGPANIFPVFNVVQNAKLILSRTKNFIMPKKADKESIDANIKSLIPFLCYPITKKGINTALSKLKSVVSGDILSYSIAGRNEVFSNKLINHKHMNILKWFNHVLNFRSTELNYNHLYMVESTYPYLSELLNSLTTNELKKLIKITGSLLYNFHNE
Chain of recombinant RSV complex (P03421 whole entry, further chain): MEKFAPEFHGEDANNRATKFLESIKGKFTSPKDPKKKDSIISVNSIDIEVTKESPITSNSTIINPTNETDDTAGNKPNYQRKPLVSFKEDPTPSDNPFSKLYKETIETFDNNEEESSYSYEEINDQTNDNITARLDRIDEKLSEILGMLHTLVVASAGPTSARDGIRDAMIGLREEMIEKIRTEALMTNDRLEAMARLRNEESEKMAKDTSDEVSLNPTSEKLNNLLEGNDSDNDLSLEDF
In short: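 10 nM recombinant RSV polymerase complex in Tris-HCl pH 7.5, 6 mM MgCl2 with RNA oligonucleotide template and radionucleotides, incubated 2 h at 30 °C with increasing inhibitor concentrations. Reaction stopped with EDTA; radiolabeled RNA product counted by scintillation.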

[5] = 50% cytotoxicity concentration (CC50)
[6] = HEp-2, 120 h, read-out: 50% effective concentration (EC50), HEp-2 cells infected with RSV long strain, 5 days, CCK-8 readout
[7] = 120 h, read-out: 50% effective concentration (EC50), HEp-2 cells infected with RSV long strain, 5 days, CCK-8 readout

Row | SMILES | EC50 [1] [nM] | CC50 at 5 days [2, 5] [µM] | EC50 [3, 6] [nM] | IC50 [4] [nM] | EC50 [3, 7] [nM] | CC50 at 5 days ([2]; no virus, 5 days, CCK-8 readout, Tables C and D list compounds by CC50 band) [µM]
1 | CNC(C)(C)c1cc(-c2ccc(F)c(Cl)c2)nc(C(O)(CNC(=O)c2ccc(OC[C@@H](C)O)c(OC)c2)C(F)(F)F)c1 (stereo partly shown) [Compound 486] | < 1000 | 10 to 100 | < 1000 | < 1000 | – | –
2 | CNC(C)(C)c1cc(-c2ccc(F)c(Cl)c2)nc(C(O)(CNC(=O)c2ccc(OCC(N)=O)c(OC)c2)C(F)(F)F)c1 (stereo not shown) [Compound 487] | < 1000 | 10 to 100 | < 1000 | < 1000 | – | –
3 | CNC(C)(C)c1cc(-c2ccc(F)c(Cl)c2)nc(C(O)(CNC(=O)c2cc(OC)c3ncccc3c2)C(F)(F)F)c1 (stereo not shown) [Compound 488] | < 1000 | 10 to 100 | < 1000 | < 1000 | – | –
4 | COc1cc(C(=O)NCC(O)(c2cc(C(C)(C)N)cc(-c3ccc(F)c(Cl)c3)n2)C(F)(F)F)ccc1OCCO (stereo not shown) [Compound 489] | < 1000 | 10 to 100 | < 1000 | < 1000 | – | –
5 | COc1cc(C(=O)NCC(O)(c2cc(C(C)(C)N)cc(-c3ccc(F)c(Cl)c3)n2)C(F)(F)F)ccc1OCCOC(=O)C(C)C (stereo not shown) [Compound 490] | < 1000 | 10 to 100 | < 1000 | < 10000 | – | –
6 | CNC(C)(C)c1cc(-c2ccc(F)c(Cl)c2)nc(C(O)(CNC(=O)c2ccc(OCCO)c(OC)c2)C(F)(F)F)c1 (stereo not shown) [Compound 491] | < 1000 | 10 to 100 | < 1000 | < 1000 | – | –
7 | COc1cc(C(=O)NC[C@](O)(c2cc(C(C)(C)N)cc(-c3ccc(F)cc3)n2)C(F)(F)F)ccc1OC1CC1 [Compound 496] | < 1000 | 10 to 100 | < 1000 | < 1000 | – | –
8 | CCOc1ccc(C(=O)NCC(O)(c2cc3c(c(-c4ccc(F)c(Cl)c4)n2)OCC3(C)N)C(F)(F)F)cc1OC (stereo not shown) [Compound 498] | < 1000 | 10 to 100 | < 1000 | < 1000 | – | –
9 | COC(=O)CNC(C)(C)c1cc(-c2ccc(F)c(Cl)c2)nc(C(O)(CNC(=O)c2ccc(OC3CC3)c(OC)c2)C(F)(F)F)c1 (stereo not shown) [Compound 500] | < 1000 | 10 to 100 | – | < 1000 | < 1000 | –
10 | COc1cc(C(=O)NCC(O)(c2cc(C(C)(C)NCCO)cc(-c3ccc(F)c(Cl)c3)n2)C(F)(F)F)ccc1OC1CC1 (stereo not shown) [Compound 502] | < 1000 | 10 to 100 | < 1000 | < 1000 | – | –
11 | COc1cc(C(=O)NCC(N)(c2ccc(OC)c(-c3ccc(F)c(Cl)c3)n2)C(F)(F)F)ccc1OC1CC1 (stereo not shown) [Compound 503] | < 1000 | 10 to 100 | < 1000 | < 1000 | – | –
12 | COc1cc(C(=O)NCC(N)(c2cc(C(C)(C)N)cc(-c3ccc(F)c(Cl)c3)n2)C(F)(F)F)ccc1OC1CC1 (stereo not shown) [Compound 504] | < 1000 | 10 to 100 | < 1000 | < 1000 | – | –
13 | COc1cc(C(=O)NCC(O)(c2cc(C3(C)CCNC3)cc(-c3ccc(F)cc3)n2)C(F)(F)F)ccc1OC1CC1 (stereo not shown) [Compound 507] | < 1000 | 10 to 100 | < 1000 | < 1000 | – | –
14 | COc1cc(C(=O)NCC(O)(c2ccc(CN)c(-c3ccc(F)cc3)n2)C(F)(F)F)ccc1OC1CC1 (stereo not shown) [Compound 514] | < 1000 | 10 to 100 | < 1000 | < 1000 | – | –
15 | COc1cc(C(=O)NCC(O)(c2cc(C(C)(C)NCC(=O)O)cc(-c3ccc(F)c(Cl)c3)n2)C(F)(F)F)ccc1OC1CC1 (stereo not shown) [Compound 515] | < 1000 | 10 to 100 | < 1000 | < 1000 | – | –
16 | COc1cc(C(=O)NCC(O)(c2cc(C(C)(C)NC(N)=O)cc(-c3ccc(F)c(Cl)c3)n2)C(F)(F)F)ccc1OC1CC1 (stereo not shown) [Compound 516] | < 1000 | 10 to 100 | < 1000 | < 1000 | – | –
17 | COc1cc(C(=O)NCC(O)(c2cc3c(c(-c4ccc(F)c(Cl)c4)n2)OCC3N)C(F)(F)F)ccc1OC1CC1 (stereo not shown) [Compound 525] | < 1000 | 10 to 100 | < 1000 | < 1000 | – | –
18 | COc1cc(C(=O)NCC(O)(c2cc3c(c(-c4ccc(F)c(Cl)c4)n2)CNC3(C)C)C(F)(F)F)ccc1OC1CC1 (stereo not shown) [Compound 526] | < 1000 | 10 to 100 | < 1000 | < 1000 | – | –
19 | COc1cc(C(=O)NCC(O)(c2cc(C(C)(C)N)cc(-c3ccc(C#N)cc3)n2)C(F)(F)F)ccc1OC1CC1 (stereo not shown) [Compound 527] | < 1000 | – | < 1000 | < 1000 | – | 10 to 100

Row | SMILES | EC50 [1] [nM] | CC50 at 5 days [2, 5] [µM] | EC50 [3, 6] [nM] | IC50 [4] [nM] | EC50 [3, 7] [nM] | CC50 at 5 days ([2]; no virus, 5 days, CCK-8 readout, Tables C and D list compounds by CC50 band) [µM]
20 | COc1cc(C(=O)NCC(O)(c2cc(C(N)CO)cc(-c3ccc(F)c(Cl)c3)n2)C(F)(F)F)ccc1OC1CC1 (stereo not shown) [Compound 528] | < 1000 | 10 to 100 | < 1000 | < 1000 | – | –
21 | COc1cc(C(=O)NCC(O)(c2cc(C(N)CO)cc(-c3ccc(F)cc3)n2)C(F)(F)F)ccc1OC1CC1 (stereo not shown) [Compound 529] | < 1000 | 10 to 100 | < 1000 | < 1000 | – | –
22 | CCC1(N)COc2c1cc(C(O)(CNC(=O)c1ccc(OCCO)c(OC)c1)C(F)(F)F)nc2-c1ccc(F)cc1 (stereo not shown) [Compound 530] | < 1000 | 10 to 100 | – | < 1000 | < 1000 | –
23 | CCC1(N)COc2c1cc(C(O)(CNC(=O)c1ccc(OC3CC3)c(OC)c1)C(F)(F)F)nc2-c1ccc(F)cc1 (stereo not shown) [Compound 531] | < 1000 | 10 to 100 | < 1000 | < 1000 | – | –
24 | COc1cc(C(=O)NCC(O)(c2cc(C(C)(N)CO)cc(-c3ccc(F)c(Cl)c3)n2)C(F)(F)F)ccc1OC1CC1 (stereo not shown) [Compound 533] | < 1000 | 10 to 100 | < 1000 | < 1000 | – | –
25 | COc1cc(C(=O)NCC(O)(c2cc(C(C)(N)CF)cc(-c3ccc(F)c(Cl)c3)n2)C(F)(F)F)ccc1OC1CC1 (stereo not shown) [Compound 534] | < 1000 | 10 to 100 | < 1000 | < 1000 | – | –
26 | COCC(C)(N)c1cc(-c2ccc(F)c(Cl)c2)nc(C(O)(CNC(=O)c2ccc(OC3CC3)c(OC)c2)C(F)(F)F)c1 (stereo not shown) [Compound 535] | < 1000 | 10 to 100 | < 1000 | < 1000 | – | –
27 | COc1cc(C(=O)NCC(O)(c2cc(C(C)(N)C(N)=O)cc(-c3ccc(F)c(Cl)c3)n2)C(F)(F)F)ccc1OC1CC1 (stereo not shown) [Compound 536] | < 1000 | 10 to 100 | < 1000 | < 1000 | – | –
28 | COc1cc(C(=O)NCC(O)(c2cc3c(c(-c4ccc(F)cc4)n2)OCC3(C)CN)C(F)(F)F)ccc1OC1CC1 (stereo not shown) [Compound 538] | < 1000 | 10 to 100 | < 1000 | < 1000 | – | –
29 | COc1cc(C(=O)NCC(O)(c2cc3c(c(-c4ccc(F)cc4)n2)OCC3(C)N)C(F)(F)F)ccc1OCCO (stereo not shown) [Compound 539] | < 1000 | 10 to 100 | < 1000 | < 1000 | – | –
30 | COc1cc(C(=O)NCC(O)(c2cc(C(C)(N)CF)cc(-c3ccc(F)c(Cl)c3)n2)C(F)(F)F)ccc1OCCO (stereo not shown) [Compound 540] | < 1000 | 10 to 100 | – | < 1000 | < 1000 | –
31 | COc1cc(C(=O)NCC(O)(c2cc3c(c(-c4ccc(F)cc4)n2)OCC3(C)N)C(F)(F)F)ccc1OCC(N)=O (stereo not shown) [Compound 543] | < 1000 | 10 to 100 | < 1000 | < 1000 | – | –
32 | COc1cc(C(=O)NC[C@@](O)(c2cc(C(C)(C)N)cc(-c3ccc(F)cc3)n2)C(F)(F)F)ccc1OC[C@@H](C)O [Compound 545] | < 1000 | 10 to 100 | < 1000 | < 1000 | – | –
33 | COc1cc(C(=O)NC[C@](O)(c2cc(C(C)(C)N)cc(-c3ccc(F)cc3)n2)C(F)(F)F)ccc1OC[C@@H](C)O [Compound 546] | < 1000 | 10 to 100 | < 1000 | < 1000 | – | –
34 | COc1cc(C(=O)NC[C@@](O)(c2cc(C(C)(C)N)cc(-c3ccc(F)c(Cl)c3)n2)C(F)(F)F)ccc1OCC(N)=O [Compound 547] | < 1000 | 10 to 100 | < 1000 | < 1000 | – | –
35 | COc1cc(C(=O)NC[C@](O)(c2cc(C(C)(C)N)cc(-c3ccc(F)c(Cl)c3)n2)C(F)(F)F)ccc1OCC(N)=O [Compound 548] | < 1000 | 10 to 100 | < 1000 | < 1000 | – | –
36 | COc1cc(C(=O)NC[C@@](O)(c2cc(C(C)(C)N)cc(-c3ccc(F)c(Cl)c3)n2)C(F)(F)F)ccc1OC[C@@H](C)O [Compound 551] | < 1000 | 10 to 100 | < 1000 | < 1000 | – | –
37 | COc1cc(C(=O)NC[C@](O)(c2cc(C(C)(C)N)cc(-c3ccc(F)c(Cl)c3)n2)C(F)(F)F)ccc1OC[C@@H](C)O [Compound 552] | < 1000 | 10 to 100 | < 1000 | < 1000 | – | –
